US9701689B2, “Substituted pyridines and pyridazines as CCR10 receptor inhibitors” (KYOWA HAKKO KIRIN CO., LTD., priority 2012, dated 2017)

Each molecule was assayed against T1, human CCR10 (Homo sapiens, UniProt P46092) (assay: CCR10 antagonistic effect: calcium assay of human CCR10 (CTACK-induced increase of intracellular calcium in hCCR10G16 cells)). Conditions: at a concentration of not more than 1000 nmol/L; human CCR10-expressing hCCR10G16 cells, 300 nmol/L CTACK added; read-out: inhibition of increase in the calcium ion concentration.
T1 construct: expressed in transfected cells; host or cells: KJMGER8 cells (Namalwa cell-derived line), beta-estradiol-induced; hCCR10G16 cells
T1 sequence (P46092 1-362): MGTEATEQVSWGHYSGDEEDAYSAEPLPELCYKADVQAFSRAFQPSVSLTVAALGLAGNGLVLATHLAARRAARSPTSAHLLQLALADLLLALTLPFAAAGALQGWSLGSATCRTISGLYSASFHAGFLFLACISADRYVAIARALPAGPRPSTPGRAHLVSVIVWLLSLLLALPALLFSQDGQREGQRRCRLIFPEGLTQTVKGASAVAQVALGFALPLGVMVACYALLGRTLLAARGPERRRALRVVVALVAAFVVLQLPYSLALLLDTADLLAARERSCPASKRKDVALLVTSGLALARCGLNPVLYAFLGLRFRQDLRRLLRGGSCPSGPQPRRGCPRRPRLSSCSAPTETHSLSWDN
Format: cell-based
How it was run: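 Inhibition of CTACK-evoked calcium flux (max minus min Fluo-3 fluorescence over ~5 min, FDSS) was calculated against control in β-estradiol-induced human CCR10/Gα16 KJMGER8 cells, after 30 min compound preincubation at 37 °C; CTACK added from a 300 nmol/L solution.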

inhibition at up to 1 µM [%] | SMILES
≥ 50 | N#Cc1cc(OC(F)(F)F)ccc1Nc1c(C(=O)N2CCC(c3ccc(F)cc3)CC2)cnc(S(N)(=O)=O)c1Cl [Compound 256, 3-chloro-4-[2-cyano-4-(trifluoromethoxy)phenylamino]-5-[4-(4-fluorophenyl)piperidine-1-carbonyl]pyridine-2-sulfonamide]
≥ 50 | Cc1ccc(F)cc1Nc1cc(S(N)(=O)=O)ncc1C(=O)N1CCC(c2ccc(F)cc2)CC1 [Compound 62, 4-(5-fluoro-2-methylphenylamino)-5-[4-(4-fluorophenyl)piperidine-1-carbonyl]pyridine-2-sulfonamide]
≥ 50 | COc1ccc(Nc2cc(S(N)(=O)=O)ncc2C(=O)N2CCC(c3ccc(F)cc3)CC2)cc1F [Compound 86, 4-(3-fluoro-4-methoxyphenylamino)-5-[4-(4-fluorophenyl)piperidine-1-carbonyl]pyridine-2-sulfonamide]
≥ 50 | Cc1cc(F)ccc1Nc1c(C(=O)N2CCC(c3ccc(F)cc3)CC2)cnc(S(=N)(N)=O)c1Cl (stereo not shown) [Compound 200, 3-chloro-4-(4-fluoro-2-methylphenylamino)-5-[4-(4-fluorophenyl)piperidine-1-carbonyl]pyridine-2-sulfonimidamide]
≥ 50 | COc1ccc(Nc2cc(S(N)(=O)=O)ncc2C(=O)N2CCC(c3ccc(F)cc3)CC2)cc1C(F)(F)F [Compound 89, 5-[4-(4-fluorophenyl)piperidine-1-carbonyl]-4-[4-methoxy-3-(trifluoromethyl)phenylamino]pyridine-2-sulfonamide]
≥ 50 | COC1(c2ccc(F)cc2)CCN(C(=O)c2cnc(S(N)(=O)=O)c(C)c2Nc2ccccc2C)CC1 [Compound 304, 5-[4-(4-fluorophenyl)-4-methoxypiperidine-1-carbonyl]-3-methyl-4-(o-tolylamino)pyridine-2-sulfonamide]
≥ 50 | NS(=O)(=O)c1ncc(C(=O)N2CCC(c3ccc(F)cc3)CC2)c(NC2CCCCC2)c1Cl [Compound 45, 3-chloro-4-(cyclohexylamino)-5-[4-(4-fluorophenyl)piperidine-1-carbonyl]pyridine-2-sulfonamide]
≥ 50 | Cc1cc(F)ccc1Nc1c(C(=O)N2CCC(c3ccc(F)cc3)CC2)cnc(S(=O)(=O)n2ccc3ncccc32)c1Cl [Compound 192, [6-(1H-pyrrolo[3,2-b]pyridin-1-ylsulfonyl)-5-chloro-4-(4-fluoro-2-methylphenylamino)pyridin-3-yl][4-(4-fluorophenyl)piperidin-1-yl]methanone]
≥ 50 | Cc1cccc(Nc2c(C(=O)N3CCC4(CC3)CNc3ccccc3C4)cnc(S(N)(=O)=O)c2Cl)c1 [Compound 218, 3-chloro-5-[2′,4′-dihydro-1′H-spiro[piperidine-4,3′-quinoline]-1-ylcarbonyl]-4-(m-tolylamino)pyridine-2-sulfonamide]
≥ 50 | CCc1ccccc1Nc1c(C(=O)N2CCC(c3ccc(F)cc3)CC2)cnc(S(=O)(=O)Nc2ccon2)c1C [Compound 239, 4-(2-ethylphenylamino)-5-[4-(4-fluorophenyl)piperidine-1-carbonyl]-N-(isoxazol-3-yl)-3-methylpyridine-2-sulfonamide]
≥ 50 | Cc1cc(F)ccc1Nc1cc(S(=O)(=O)Nc2cncnc2)ncc1C(=O)N1CCC(c2ccc(F)cc2)CC1 [Compound 156, 4-(4-fluoro-2-methylphenylamino)-5-[4-(4-fluorophenyl)piperidine-1-carbonyl]-N-(pyrimidin-5-yl)pyridine-2-sulfonamide]
≥ 50 | Cc1cc(Cl)ccc1Nc1cc(S(N)(=O)=O)ncc1C(=O)N1CCC2(CC1)OCc1ccccc12 [Compound 46, 4-(4-chloro-2-methylphenylamino)-5-(3H-spiro[isobenzofuran-1,4′-piperidine]-1′-ylcarbonyl]pyridine-2-sulfonamide]
≥ 50 | Cc1c(S(=O)(=O)Nc2ccon2)ncc(C(=O)N2CCC(c3ccc(F)cc3)CC2)c1Nc1cccc(Cl)c1 [Compound 244, 4-(3-chlorophenylamino)-5-[4-(4-fluorophenyl)piperidine-1-carbonyl]-N-(isoxazol-3-yl)-3-methylpyridine-2-sulfonamide]
≥ 50 | Cc1cc(NS(=O)(=O)c2cc(Nc3ccc(F)cc3C)c(C(=O)N3CCC(c4ccc(F)cc4)CC3)cn2)no1 [Compound 157, 4-(4-fluoro-2-methylphenylamino)-5-[4-(4-fluorophenyl)piperidine-1-carbonyl]-N-(5-methylisoxazol-3-yl)pyridine-2-sulfonamide]
≥ 50 | Cc1cc(F)ccc1Nc1c(C(=O)N2CCC(c3ccc(F)cc3)CC2)cnc(S(=O)(=O)O)c1Cl [Compound 24, 3-chloro-4-(4-fluoro-2-methylphenylamino)-5-[4-(4-fluorophenyl)piperidine-1-carbonyl]pyridine-2-sulfonic acid]
≥ 50 | CCNC(=O)NS(=O)(=O)c1ncc(C(=O)N2CCC(c3ccc(F)cc3)CC2)c(Nc2ccc(F)cc2C)c1Cl [Compound 43, 3-chloro-N-(ethylcarbamoyl)-4-(4-fluoro-2-methylphenylamino)-5-[4-(4-fluorophenyl)piperidine-1-carbonyl]pyridine-2-sulfonamide]
≥ 50 | Cc1cc(F)ccc1Nc1c(C(=O)N2CCC(c3ccc(F)cc3)CC2)cnc(S(=O)(=O)Nc2ccccc2)c1Cl [Compound 191, 3-chloro-4-(4-fluoro-2-methylphenylamino)-5-[4-(4-fluorophenyl)piperidine-1-carbonyl]-N-phenylpyridine-2-sulfonamide]
≥ 50 | Cc1c(S(=O)(=O)Nc2ccon2)ncc(C(=O)N2CCC(c3ccc(F)cc3)CC2)c1Nc1ccccc1F [Compound 255, 5-[4-(4-fluorophenyl)piperidine-1-carbonyl]-4-(2-fluorophenylamino)-N-(isoxazol-3-yl)-3-methylpyridine-2-sulfonamide]
≥ 50 | NS(=O)(=O)c1cc(Nc2ccccc2F)c(C(=O)N2CCC(c3ccc(F)cc3)CC2)cn1 [Compound 102, 5-[4-(4-fluorophenyl)piperidine-1-carbonyl]-4-(2-fluorophenylamino)pyridine-2-sulfonamide]
≥ 50 | Cc1cc(Cl)ccc1Nc1cc(S(N)(=O)=O)ncc1C(=O)N1CCC(c2ccccc2)CC1 [Compound 49, 4-(4-chloro-2-methylphenylamino)-5-(4-phenylpiperidine-1-carbonyl)pyridine-2-sulfonamide]
≥ 50 | Cc1cc(C(F)(F)F)ccc1Nc1cc(S(N)(=O)=O)ncc1C(=O)N1CCC(c2ccc(F)cc2)CC1 [Compound 100, 5-[4-(4-fluorophenyl)piperidine-1-carbonyl]-4-[2-methyl-4-(trifluoromethyl)phenylamino]pyridine-2-sulfonamide]
≥ 50 | Cc1cc(F)ccc1Nc1cc(S(=O)(=O)N2CCC(C(N)=O)CC2)ncc1C(=O)N1CCC(c2ccc(F)cc2)CC1 [Compound 138, 1-{4-(4-fluoro-2-methylphenylamino)-5-[4-(4-fluorophenyl)piperidine-1-carbonyl]pyridin-2-ylsulfonyl}piperidine-4-carboxamide]
≥ 50 | CCCNC(=O)NS(=O)(=O)c1cc(Nc2ccc(F)cc2C)c(C(=O)N2CCC(c3ccc(F)cc3)CC2)cn1 [Compound 168, 4-(4-fluoro-2-methylphenylamino)-5-[4-(4-fluorophenyl)piperidine-1-carbonyl]-N-(propylcarbamoyl)pyridine-2-sulfonamide]
≥ 50 | Cc1ccc(Nc2cc(S(N)(=O)=O)ncc2C(=O)N2CCC(c3ccc(F)cc3)CC2)cc1Cl [Compound 79, 4-(3-chloro-4-methylphenylamino)-5-[4-(4-fluorophenyl)piperidine-1-carbonyl]pyridine-2-sulfonamide]
≥ 50 | Cc1c(S(=O)(=O)Nc2ccn(C)n2)ncc(C(=O)N2CCC(c3ccc(F)cc3)CC2)c1NCc1ccccc1 [Compound 250, 4-(benzylamino)-5-[4-(4-fluorophenyl)piperidine-1-carbonyl]-3-methyl-N-(1-methyl-1H-pyrazol-3-yl)pyridine-2-sulfonamide]
≥ 50 | COc1ccc(C#N)c(Nc2c(C(=O)N3CCC(c4ccc(F)cc4)CC3)cnc(S(N)(=O)=O)c2Cl)c1 [Compound 321, 3-chloro-4-(2-cyano-5-methoxyphenylamino)-5-[4-(4-fluorophenyl)piperidine-1-carbonyl]pyridine-2-sulfonamide]
≥ 50 | Cc1cc(F)ccc1Nc1cc(S(=O)(=O)O)ncc1C(=O)N1CCC(c2ccc(F)cc2)CC1 [Compound 1, 4-(4-fluoro-2-methylphenylamino)-5-[4-(4-fluorophenyl)piperidine-1-carbonyl]pyridine-2-sulfonic acid]
≥ 50 | NS(=O)(=O)c1cc(Nc2ccc3c(c2)CCO3)c(C(=O)N2CCC(c3ccc(F)cc3)CC2)cn1 [Compound 94, 4-(2,3-dihydrobenzofuran-5-ylamino)-5-[4-(4-fluorophenyl)piperidine-1-carbonyl]pyridine-2-sulfonamide]
